IC50 data for 45 compounds are collected here from patent US10501801B2, “Identification of tumor-protective epitopes for the treatment of cancers” (THE UNIVERSITY OF CONNECTICUT, priority 2012, dated 2019).

Ends that are not written are not given here.

The first assay deals with H-2 K^d (Mus musculus, UniProt P01902). The assay is described as follows: Binding of peptides to purified H-2 K^d (inhibition of radiolabeled standard peptide).
H-2 K^d, sequence (P01902 22-368): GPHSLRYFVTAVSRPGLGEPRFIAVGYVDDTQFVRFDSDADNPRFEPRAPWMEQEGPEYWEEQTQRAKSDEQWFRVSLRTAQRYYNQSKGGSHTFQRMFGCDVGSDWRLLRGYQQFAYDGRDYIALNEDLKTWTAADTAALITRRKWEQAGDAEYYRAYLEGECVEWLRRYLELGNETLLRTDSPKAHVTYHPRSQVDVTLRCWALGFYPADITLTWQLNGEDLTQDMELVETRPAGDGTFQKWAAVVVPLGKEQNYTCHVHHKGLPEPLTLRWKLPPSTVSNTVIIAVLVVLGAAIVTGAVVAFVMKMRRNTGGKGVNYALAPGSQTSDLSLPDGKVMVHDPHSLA
H-2 K^d, sequence (P61769 21-119 partner): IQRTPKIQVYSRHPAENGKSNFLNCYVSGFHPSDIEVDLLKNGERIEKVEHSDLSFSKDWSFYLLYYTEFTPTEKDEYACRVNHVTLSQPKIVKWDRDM
Conditions: not given
The protocol:
Binding assays. Binding of peptides to H-2 K^d was determined using quantitative assays based on the inhibition of binding of a radiolabeled standard peptide to purified MHC molecules, essentially as known in the art. […] Under the conditions utilized, where [label]<[MHC] and IC50≥[MHC], the measured IC50 values are reasonable approximations of the KD values.
In turn, `CC[C@H](C)[C@H](N)C(=O)N[C@@H](Cc1ccc(O)cc1)C(=O)NCC(=O)N[C@H](C(=O)N[C@H](C(=O)N[C@@H](C)C(=O)N[C@@H](CCCNC(=N)N)C(=O)N[C@@H](CC(N)=O)C(=O)N[C@@H](CCCNC(=N)N)C(=O)N[C@@H](C)C(=O)N[C@@H](CC(C)C)C(=O)O)C(C)C)C(C)C` [Dis312.1, I(y/D)GVVARNRAL] displayed an IC50 of more than 70 µM.

Take AYAKQFAA [Ube4a.2, A(y/D)AKQFAA]: the IC50 was more than 70 µM.

In turn, AYILAALTKL [Trim26.1] displayed an IC50 of 0.0011 µM.

In turn, AYILAALTKLQ [Trim26.2] displayed an IC50 of more than 70 µM.

GFHGCIHEVL [Slit3] gave an IC50 of more than 70 µM.

Regarding GYSVLHLAI [Nfkb1, G(y/D)SVLHLAI], the IC50 is 1.61 µM.

For the compound HYLQGSNA [Fiz1, H(y/D)LQGSNA], the IC50 is more than 70 µM.

Compound HYLSSILRL [Pacs2, HYLS(s/A)ILRL] registered an IC50 of 1.27 µM.

For LYHTRPTAL [Kdm4b, L(y/D)HTRPTAL], the IC50 is more than 70 µM.

For LYVSKLNGP [Galnt1, L(y/D)VSKLNGP], the IC50 is more than 70 µM.

The compound NYLLSLVAVML [Serinc1] yielded an IC50 of 20.9 µM.

On to PALKSEEKTL [Stau1.3], for which the IC50 is more than 70 µM.

The compound PYKRLKAEPA [Prrc2a] came in with an IC50 of 0.261 µM.

Compound SYCEPALNQA [Ncdn] gave an IC50 of more than 70 µM.

The compound SYMLQALCI [Tnpo3, (sy/LD)MLQALCI] gave an IC50 of 0.146 µM.

VYLTCRLEKPA [Gapdh] yielded an IC50 of more than 70 µM.

The assay is the same for the next values; noted with them: mutated peptide; Table 5; read-out: Measured IC50 for K^d Mut/WT: Mut.
As for AYILAALTKLQ [Zfp236.2, E(y/D)LDLQTQG], the IC50 amounted to 10 µM.

For the compound AYRLEGDRS [Dcaf6, A(y/D)RLEGDRS], the IC50 is more than 70 µM.

As to “D(y/D)VPMEQPRP (DYVPMEQPRP; not fully specified; listed as Mus musculus) [Alkbh6.3]”, the IC50 is more than 70 µM.

On to DYVPMEQPR [Alkbh6.2, D(y/D)VPMEQPR], for which the IC50 is more than 70 µM.

On to “ELQGLLEDE(l/R) (ELQGLLEDEL; not fully specified; printed as ELQGLLEDE(l/R); listed as Mus musculus) [Ccdc136]”, for which the IC50 was more than 70 µM.

Regarding KLQRQYRSPRL [Mast2], the IC50 amounted to 10.1 µM.

For the compound PYLTQYAI [Dhx8.2, P(y/D)LTQYAI], the IC50 is more than 70 µM.

Take “QVFPGLME(l/R) (QVFPGLMEL; not fully specified; printed as QVFPGLME(l/R); listed as Mus musculus) [Atxn10.1]”: the IC50 is more than 70 µM.

Consider “SWSSRRSLLG(l/R) (SWSSRRSLLGL; not fully specified; listed as Mus musculus) [9430016H08Rik]”, for which the IC50 was more than 70 µM.

Turning to VFPGLMEL [Atxn10.2, VFPGLME(l/R)], the IC50 was more than 70 µM.

Still in this assay, the particulars now being: wild type counterpart peptide; Table 4; read-out: Measured IC50 for K^d Mut/WT: WT.
Consider “AYCETCWE(l/W) (AYCETCWEL; not fully specified; printed as AYCETCWE(l/W); cysteine pairing not given here; listed as Mus musculus) [Apc]”, for which the IC50 worked out at 0.06 µM.

With CYAKVKEQL [Ssx2ip, CYAK(v/L)KEQL], the IC50 was determined as 0.0032 µM.

Take HYINMILPI [Ufsp2, HYINM(i/S)LPI]: the IC50 is less than 0.0001 µM.

With “YYVPLLKRVP(l/S) (YYVPLLKRVPL; not fully specified; printed as YYVPLLKRVP(l/S); listed as Mus musculus) [Alms1.2]”, the IC50 was determined as 1.49 µM.

The assay is the same for the next values; noted with them: wild type counterpart peptide; Table 5; read-out: Measured IC50 for K^d Mut/WT: WT.
In the case of ALKSEEKTL [Stau1.4], the IC50 was more than 70 µM.

On to AYAKQFAAI [Ube4a.1, A(y/D)AKQFAAI], for which the IC50 is more than 70 µM.

On to AYILAALTKLQ [Zfp236.2, E(y/D)LDLQTQG], for which the IC50 is more than 70 µM.

On to AYRLEGDRS [Dcaf6, A(y/D)RLEGDRS], for which the IC50 was more than 70 µM.

With “D(y/D)VPMEQPRPP (DYVPMEQPRPP; not fully specified; listed as Mus musculus) [Alkbh6.4]”, the IC50 was found to be 2.96 µM.

In the case of DYVPMEQP [Alkbh6.1, D(y/D)VPMEQP], the IC50 is more than 70 µM.

Take DYVPMEQPR [Alkbh6.2, D(y/D)VPMEQPR]: the IC50 was found to be 51.2 µM.

Take “ELQGLLEDE(l/R) (ELQGLLEDEL; not fully specified; printed as ELQGLLEDE(l/R); listed as Mus musculus) [Ccdc136]”: the IC50 turned out to be 4.54 µM.

With EYLDLQTQ [Zfp236.1, E(y/D)LDLQTQ], the IC50 was more than 70 µM.

As for KPALKSEEKTL [Stau1.2], the IC50 was more than 70 µM.

LKSEEKTL [Stau1.1, LKSEEKT(l/P)]: the IC50 was more than 70 µM.

LYDVDAAF [Cpsf2, L(y/D)DVDAAF]: the IC50 was more than 70 µM.

For the compound LYEAGVTDE [Tpst2.2, L(y/D)EAGVTDE], the IC50 was more than 70 µM.

Turning to LYYERIHKKML [Ugdh], the IC50 came out at 0.012 µM.

With “P(y/D)LTQYAIIM (PYLTQYAIIM; not fully specified; listed as Mus musculus) [Dhx8.4]”, the IC50 was found to be 6.26 µM.

For “P(y/D)LTQYAIIML (PYLTQYAIIML; not fully specified; listed as Mus musculus) [Dhx8.1]”, the IC50 worked out at 1.65 µM.

As to PYLTQYAI [Dhx8.2, P(y/D)LTQYAI], the IC50 was more than 70 µM.

For the compound PYLTQYAII [Dhx8.3, P(y/D)LTQYAII], the IC50 was determined as 1.42 µM.

On to “QVFPGLME(l/R) (QVFPGLMEL; not fully specified; printed as QVFPGLME(l/R); listed as Mus musculus) [Atxn10.1]”, for which the IC50 was determined as 7.05 µM.

For the compound SEDKIKAIL [Rangap1], the IC50 was 5.11 µM.

Turning to “SWSSRRSLLG(l/R) (SWSSRRSLLGL; not fully specified; listed as Mus musculus) [9430016H08Rik]”, the IC50 was more than 70 µM.

TTTPGGRPPYL [Sipa113]: the IC50 was more than 70 µM.
